The source of these data is patent US12692254B2, “Benzimidazole inhibitors of PAD enzymes” (BRISTOL-MYERS SQUIBB COMPANY, priority 2018, dated 2026).

The target of the assay is human PAD4 (hPAD4) (Homo sapiens, UniProt Q9UM07). As to the kind of experiment: RFMS human PAD4 functional assay (rapid-fire mass spectrum). The following applies: 5 nM hPAD4 enzyme, 250 μM BAEE, 50 μM Calcium; 30 min preincubation, 90 min reaction at 37° C. Type of assay: biochemical. Summed up: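 PAD4 (10 nM) preincubated 30 min with compound (top final 50 μM), then BAEE substrate added in pH 7.5 HEPES buffer with DTT, 50 μM calcium, TPEN; 90 min at 37° C. After TCA quench, citrulline derivatized with phenyl glyoxal (4 mM final, 30 min, 37° C) and quantified by RapidFire MS against internal standard.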
Chain of human PAD4 (hPAD4) (Q9UM07 whole entry): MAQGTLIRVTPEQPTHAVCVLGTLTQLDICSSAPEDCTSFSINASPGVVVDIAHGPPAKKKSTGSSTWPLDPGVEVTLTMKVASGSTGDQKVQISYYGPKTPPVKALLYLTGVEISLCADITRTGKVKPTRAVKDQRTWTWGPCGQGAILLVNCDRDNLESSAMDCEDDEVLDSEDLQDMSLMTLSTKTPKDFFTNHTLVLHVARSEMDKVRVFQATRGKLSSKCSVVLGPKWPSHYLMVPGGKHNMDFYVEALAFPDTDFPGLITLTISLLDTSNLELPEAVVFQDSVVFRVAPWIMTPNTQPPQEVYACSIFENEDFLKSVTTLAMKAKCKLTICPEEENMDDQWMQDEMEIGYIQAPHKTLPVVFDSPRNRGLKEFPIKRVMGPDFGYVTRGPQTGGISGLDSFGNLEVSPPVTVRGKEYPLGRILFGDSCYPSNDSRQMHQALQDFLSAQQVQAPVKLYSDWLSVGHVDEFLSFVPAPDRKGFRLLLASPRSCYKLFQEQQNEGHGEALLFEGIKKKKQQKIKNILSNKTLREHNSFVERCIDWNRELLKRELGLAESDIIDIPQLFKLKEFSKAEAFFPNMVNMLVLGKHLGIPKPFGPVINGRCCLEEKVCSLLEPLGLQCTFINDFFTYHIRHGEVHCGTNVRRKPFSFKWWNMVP

The IC50 is the concentration that gives 50% inhibition. Regarding `COc1cc(C(=O)N2C[C@H]3CC[C@@H]2[C@@H]3N)cc2nc(-c3cc4cccnc4n3CC3CC3)n(CC3CN(S(=O)(=O)c4ccc(Cl)nc4)C3)c12` [Example 334, (1R,4R,7R)-2-[1-({1-[(6-chloropyridin-3-yl)sulfonyl]azetidin-3-yl}methyl)-2-[1-(cyclopropylmethyl)-1H-pyrrolo[2,3-b]pyridin-2-yl]-7-methoxy-1H-1,3-benzodiazole-5-carbonyl]-2-azabicyclo[2.2.1]heptan-7-amine], the 50% inhibitory concentration (IC50) is 225 nM.
Under `COc1cc(C(=O)N2CC3CCC2[C@@H]3N)cc2nc(-c3csc4ccc(Cl)cc34)n(CC3CN(c4cncc(C#N)c4)C3)c12` (stereo partly shown) [Example 316] stands 1150 nM; under `COc1cc(C(=O)N2CC3CCC2[C@@H]3N)cc2nc(-c3cc4ccccc4n3CC3CC3)n(Cc3cnn(-c4cccnc4)c3)c12` (stereo partly drawn) [Example 368, (7R)-2-{2-[1-(cyclopropylmethyl)-1H-indol-2-yl]-7-methoxy-1-{[1-(pyridin-3-yl)-1H-pyrazol-4-yl]methyl}-1H-1,3-benzodiazole-5-carbonyl}-2-azabicyclo[2.2.1]heptan-7-amine], 29 nM.
In the case of `COc1cc(C(=O)N2C[C@H]3CC[C@@H]2[C@@H]3N)cc2nc(-c3cc4ccccc4n3CC3CC3)n(CC3CN(C(=O)C4CCCC4)C3)c12` [Example 144, (1R,4R,7R)-2-{1-[(1-cyclopentanecarbonylazetidin-3-yl)methyl]-2-[1-(cyclopropylmethyl)-1H-indol-2-yl]-7-methoxy-1H-1,3-benzodiazole-5-carbonyl}-2-azabicyclo[2.2.1]heptan-7-amine] it was 17 nM; in that of `COc1cc(C(=O)N2C[C@H]3CC[C@@H]2[C@@H]3N)cc2nc(-c3cc4cccnc4n3CC3CC3)n(CC3CN(c4ccnc(C#N)c4)C3)c12` [Example 31, 4-[3-({5-[(1R,4R,7R)-7-amino-2-azabicyclo[2.2.1]heptane-2-carbonyl]-2-[1-(cyclopropylmethyl)-1H-pyrrolo[2,3-b]pyridin-2-yl]-7-methoxy-1H-1,3-benzodiazol-1-yl}methyl)azetidin-1-yl]pyridine-2-carbonitrile], 85 nM.
With `COc1cc(C(=O)N2C[C@H]3CC[C@@H]2[C@@H]3N)cc2nc(-c3cc4cccnc4n3CC3CC3)n(C[C@@H]3CCN(c4cncc(C#N)n4)C3)c12` [Example 207, 6-[(3R)-3-({5-[(1R,4R,7R)-7-amino-2-azabicyclo[2.2.1]heptane-2-carbonyl]-2-[1-(cyclopropylmethyl)-1H-pyrrolo[2,3-b]pyridin-2-yl]-7-methoxy-1H-1,3-benzodiazol-1-yl}methyl)pyrrolidin-1-yl]pyrazine-2-carbonitrile], the IC50 came to 57 nM.
In the case of `COc1cc(C(=O)N2C[C@H](N)C[C@@H](F)C2)cc2nc(-c3cc4ccccc4n3CC3CC3)n(Cc3cccnc3)c12` [Example 248, ((3R,5R)-3-amino-5-fluoropiperidin-1-yl)(2-(1-(cyclopropylmethyl)-1H-indol-2-yl)-7-methoxy-1-(pyridin-3-ylmethyl)-1H-benzo[d]imidazol-5-yl)methanone] it was 116 nM; in that of `COc1cc(-n2cc(Cn3c(-c4cc5ccccc5n4CC4CC4)nc4cc(C(=O)N5CC6CCC5[C@@H]6N)cc(OC)c43)cn2)ccn1` (stereo partly drawn) [Example 366, (7R)-2-{2-[1-(cyclopropylmethyl)-1H-indol-2-yl]-7-methoxy-1-{[1-(2-methoxypyridin-4-yl)-1H-pyrazol-4-yl]methyl}-1H-1,3-benzodiazole-5-carbonyl}-2-azabicyclo[2.2.1]heptan-7-amine], 28 nM.
As to `COc1cc(C(=O)N2CC3CCC2[C@@H]3N)cc2nc(-c3cc4ccccc4n3CC3CC3)n(CC3CC3c3ccccc3)c12` (stereo partly drawn) [Example 479, (7R)-2-{2-[1-(cyclopropylmethyl)-1H-indol-2-yl]-7-methoxy-1-[(2-phenylcyclopropyl)methyl]-1H-1,3-benzodiazole-5-carbonyl}-2-azabicyclo[2.2.1]heptan-7-amine], the IC50 was found to be 212 nM.
In the case of `COc1cc(C(=O)N2C[C@H]3CC[C@@H]2[C@@H]3N)cc2nc(-c3cc4ccccc4n3CC3CC3)n(CCCN3CCCC3=O)c12` [Example 254, 1-(3-{5-[(1R,4R,7R)-7-amino-2-azabicyclo[2.2.1]heptane-2-carbonyl]-2-[1-(cyclopropylmethyl)-1H-indol-2-yl]-7-methoxy-1H-1,3-benzodiazol-1-yl}propyl)pyrrolidin-2-one], the IC50 came to 31 nM.
Take `COc1cc(C(=O)N2CC3CCC2[C@@H]3N)cc2nc(-c3cc4cccnc4n3CC3CC3)n(CC3CN(C(=O)c4cccc(Cl)c4)C3)c12` (stereo partly drawn) [Example 456, (7R)-2-(1-{[1-(3-chlorobenzoyl)azetidin-3-yl]methyl}-2-[1-(cyclopropylmethyl)-1H-pyrrolo[2,3-b]pyridin-2-yl]-7-methoxy-1H-1,3-benzodiazole-5-carbonyl)-2-azabicyclo[2.2.1]heptan-7-amine]: the concentration for half-maximal inhibition (IC50) came to 59 nM.
In the case of `COc1cc(C(=O)N2C[C@H]3CC[C@@H]2[C@@H]3N)cc2nc(-c3cc4cccnc4n3CC3CC3)n(C3CN(C(=O)c4ccncc4)C3)c12` [Example 189, (1R,4R,7R)-2-{2-[1-(cyclopropylmethyl)-1H-pyrrolo[2,3-b]pyridin-2-yl]-7-methoxy-1-[1-(pyridine-4-carbonyl)azetidin-3-yl]-1H-1,3-benzodiazol-5-carbonyl}-2-azabicyclo[2.2.1]heptan-7-amine] it was 583 nM.
With `COc1cc(C(=O)N2C[C@H]3CC[C@@H]2[C@@H]3N)cc2nc(-c3cc4ccccc4n3CC3CC3)n(CC3CN(C(=O)c4cccnc4)C3)c12` [Example 171, (1R,4R,7R)-2-{2-[1-(cyclopropylmethyl)-1H-indol-2-yl]-7-methoxy-1-{[1-(pyridine-3-carbonyl)azetidin-3-yl]methyl}-1H-1,3-benzodiazole-5-carbonyl}-2-azabicyclo[2.2.1]heptan-7-amine], the concentration for half-maximal inhibition (IC50) came out at 41 nM.
In the case of `COc1cc(C(=O)N2C[C@H]3CC[C@@H]2[C@@H]3N)cc2nc(-c3cc4ccccc4n3CC3CC3)n(Cc3cccs3)c12` [Example 256, (1R,4R,7R)-2-{2-[1-(cyclopropylmethyl)-1H-indol-2-yl]-7-methoxy-1-[(thiophen-2-yl)methyl]-1H-1,3-benzodiazole-5-carbonyl}-2-azabicyclo[2.2.1]heptan-7-amine] it was 41 nM.
Consider `COc1cc(C(=O)N2CC3CCC2[C@@H]3N)cc2nc(-c3cc4cccnc4n3CC3CC3)n(CC3CCN(C(=O)c4ccnc(C#N)c4)CC3)c12` (stereo partly drawn) [Example 200, 4-[4-({5-[(1R,4R,7R)-7-amino-2-azabicyclo[2.2.1]heptane-2-(cyclopropylmethyl)-1H-pyrrolo[2,3-b]pyridin-2-yl]-7-methoxy-1H-1,3-benzodiazol-1-yl}methyl)piperidine-1-carbonyl]pyridine-2-carbonitrile], for which the concentration for half-maximal inhibition (IC50) stood at 198 nM.
In the case of `COc1cc(C(=O)N2CC3CCC2[C@@H]3N)cc2nc(-c3cc4ccccc4n3CC3CC3)n(CC3CC(F)(F)C3)c12` (stereo partly drawn) [Example 478, (7R)-2-{2-[1-(cyclopropylmethyl)-1H-indol-2-yl]-1-[(3,3-difluorocyclobutyl)methyl]-7-methoxy-1H-1,3-benzodiazole-5-carbonyl}-2-azabicyclo[2.2.1]heptan-7-amine], the IC50 is 48 nM.
In the case of `COc1cc(C(=O)N2C[C@H](N)C[C@@H](F)C2)cc2nc(-c3cc4ccccc4n3CC3CC3)n(CC3CN(c4cncc(C#N)c4)C3)c12` [Example 34, 5-[3-({5-[(3R,5R)-3-amino-5-fluoropiperidine-1-carbonyl]-2-[1-(cyclopropylmethyl)-1H-indol-2-yl]-7-methoxy-1H-1,3-benzodiazol-1-yl}methyl)azetidin-1-yl]pyridine-3-carbonitrile] it was 88 nM; in that of `COc1cc(C(=O)N2C[C@H]3CC[C@@H]2[C@@H]3N)cc2nc(-c3cc4cccnc4n3CC3CC3)n(C3CN(c4ncccn4)C3)c12` [Example 80, (1R,4R,7R)-2-{2-[1-(cyclopropylmethyl)-1H-pyrrolo[2,3-b]pyridin-2-yl]-7-methoxy-1-[1-(pyrimidin-2-yl)azetidin-3-yl]-1H-1,3-benzodiazole-5-carbonyl}-2-azabicyclo[2.2.1]heptan-7-amine], 403 nM; in that of `COc1cc(C(=O)N2CC3CCC2[C@@H]3N)cc2nc(-c3cc4cccnc4n3CC3CC3)n(CC3CN(C(=O)c4cc(F)cc(F)c4)C3)c12` (stereo partly drawn) [Example 427, (7R)-2-{2-[1-(cyclopropylmethyl)-1H-pyrrolo[2,3-b]pyridin-2-yl]-1-{[1-(3,5-difluorobenzoyl)azetidin-3-yl]methyl}-7-methoxy-1H-1,3-benzodiazole-5-carbonyl}-2-azabicyclo[2.2.1]heptan-7-amine], 24 nM.
For the molecule `COc1cc(C(=O)N2CC3CCC2[C@@H]3N)cc2nc(-c3cc4cccnc4n3CC3CC3)n(CC3CCN(c4ncccn4)CC3)c12` (stereo partly drawn) [Example 220, (1R,4R,7R)-2-{2-[1-(cyclopropylmethyl)-1H-pyrrolo[2,3-b]pyridin-2-yl]-7-methoxy-1-{[1-(pyrimidin-2-yl)piperidin-4-yl]methyl)-1H-1,3-benzodiazole-5-carbonyl}-2-azabicyc1o[2.2.1]heptan-7-amine], the IC50 turned out to be 72 nM.
On to `COc1cc(C(=O)N2CC3CCC2[C@@H]3N)cc2nc(-c3cc4cccnc4n3CC3CC3)n(C[C@@H]3CCN(c4nccnc4C#N)C3)c12` (stereo partly drawn) [Example 212, 3-[(3R)-3-({5-[(1R,4R,7R)-7-amino-2-azabicyclo[2.2.1]heptane-2-carbonyl]-2-[1-(cyclopropylmethyl)-1H-pyrrolo[2,3-b]pyridin-2-yl]-7-methoxy-1H-1,3-benzodiazol-1-yl}methyl)pyrrolidin-1-yl]pyrazine-2-carbonitrite], for which the IC50 came out at 81 nM.
Under `COc1cc(C(=O)N2CC3CCC2[C@@H]3N)cc2nc(-c3csc4ccc(Cl)cc34)n(CC3CN(C(=O)OCc4ccccc4)C3)c12` (stereo partly drawn) [Example 321, benzyl 3-({5-[(1R,4R,7R)-7-amino-2-azabicyclo[2.2.1]heptane-2-carbonyl]-2-(5-chloro-1-benzothiophen-3-yl)-7-methoxy-1H-1,3-benzodiazo1-1-yl}methyl)azetidine-l-carboxylate] stands 1530 nM.
